Data published in patent publication US20030032807A1, “Method for the production of 1-amino -3-aryl -uracils” (priority 2000, published 2003).

Assay: logP determination by HPLC on reversed-phase column (C 18), EEC Directive 79/831 Annex V.A8
Type: physicochemical
Details: reversed-phase HPLC column (C 18); at pH=2.3; acid range eluents 0.1% aqueous phosphoric acid/acetonitrile; 43° C.
Experimental: The determination of the logP value given in Example 1 was carried out according to EEC Directive 79/831 Annex V.A8 by HPLC (High Performance Liquid Chromatography) using a reversed-phase column (C 18). Temperature: 43° C. (a) Eluents for determination in the acid range: 0.1% aqueous phosphoric acid, acetonitrile; linear gradient from 10% acetonitrile to 90% acetonitrile—corresponding measurements are marked in Table 1 by ^a). (b) Eluents for determination in the neutral range: […] aqueous phosphate buffer solution, acetonitrile; linear gradient of 10% acetonitrile to 90% acetonitrile—corresponding measurements are marked in Table 1 by ^b). Calibration was carried out using unbranched alkan-2-ones (having from 3 to 16 carbon atoms), whose logP values are known (determination of logP values using the retention times by linear interpolation between two consecutive alkanones).

| chromatographic logP | SMILES |
| --- | --- |
| 2.41 | Nn1c(C(F)(F)F)cc(=O)n(-c2ccc(Br)cc2F)c1=O [Example 1, 1-amino-3-(4-bromo-2-fluorophenyl)-6-trifluoromethyl-2,4-(1H,3H)-pyrimidinedione] |
| 2.82 | CCS(=O)(=O)N(C(=O)c1ccccc1)c1cc(-n2c(=O)cc(C(F)(F)F)n(N)c2=O)c(F)cc1C#N [Example 8, N-benzoyl-N-[2-cyano-5-(3-amino-2,6-dioxo-4-trifluoromethyl-3,6-dihydro-1-(2H)-pyrimidinyl)-4-fluorophenyl]ethanesulphonamide] |
